Reference: ChEMBL document CHEMBL2094269, “WEHI/Eskitis Trypanosoma b. brucei screening data”

How the values were obtained:
[1] = test system: Trypanosoma brucei brucei; test: microbe, parasite or virus in culture; assay type: functional, organism-based, STIB 795
Description: DNDI: Inhibition of Human African Trypanosomiasis (HAT), STIB 795, in vitro

[2] = DNDI: Cytotoxicity against human MRC-5 lung fibroblast cells.; conditions: IC50

With `CC(O)CN1C(=O)c2ccc3c4c(ccc(c24)C1=O)C(=O)N(CC(C)O)C3=O` (stereo unspecified) the IC50 ([1]; Trypanosoma brucei, STIB 795) was 5.05 µM and the IC50 [2] was over 41.7 µM.

In the case of `CC(C)(C)c1cc(C(c2ccccn2)N2CCOCC2)cc(C(C)(C)C)c1O` (stereo unspecified), the IC50 ([1]; Trypanosoma brucei, STIB 795) is reported as 10.6 µM and the IC50 [2] is reported as over 41.7 µM.

`COc1ccccc1C(=O)c1sc(Nc2ccc3c(c2)OCCO3)nc1N` gave an IC50 ([1]; Trypanosoma brucei, STIB 795) of at most 1.08 µM and an IC50 [2] of over 1.04 µM.

With `COc1ccccc1C(NC(=O)c1ccccc1)c1ccc2cccnc2c1O` (stereo unspecified) the IC50 ([1]; Trypanosoma brucei, STIB 795) was 5.68 µM and the IC50 [2] was over 10.4 µM.

`Oc1c(/C=N/NC(=S)Nc2cccc(F)c2)cc2c3c1CCCN3CCC2` showed an IC50 ([1]; Trypanosoma brucei, STIB 795) of 3.08 µM and an IC50 [2] of over 41.7 µM.

`Fc1ccc(C(CCCN2CCN3CCCCC3C2)c2ccc(F)cc2)cc1` (stereo unspecified) gave an IC50 ([1]; Trypanosoma brucei, STIB 795) of 5.31 µM and an IC50 [2] of over 41.7 µM.

In the case of `O=C(N/N=C/c1c(O)ccc2ccccc12)c1cc(Br)ccc1O`, the IC50 ([1]; Trypanosoma brucei, STIB 795) is reported as 3.77 µM and the IC50 [2] is reported as over 4.17 µM.

With `Cc1ccc2c(c1)OCC(CC(=O)NCCN(C)C)N2Cc1ccc(F)cc1` (stereo unspecified) the IC50 ([1]; Trypanosoma brucei, STIB 795) was 2.2 µM and the IC50 [2] was over 4.17 µM.

For `CC(C)c1ccc(-c2csc(NC(=O)C3C4CCC(O4)C3C(=O)O)n2)cc1` (stereo unspecified), the IC50 [1] was 0.879 µM, the IC50 ([1]; Trypanosoma brucei, STIB 795) was 1.56 µM and the IC50 [2] was over 41.7 µM.

`CC(=O)Nc1ccc(C)cc1S(=O)(=O)NCCn1c(C)nc2ccccc21` showed an IC50 ([1]; Trypanosoma brucei, STIB 795) of 4.83 µM and an IC50 [2] of over 41.7 µM.

For `CCS(=O)(=O)N1CCCc2ccc(NS(=O)(=O)c3cccs3)cc21`, the IC50 ([1]; Trypanosoma brucei, STIB 795) was 0.796 µM and the IC50 [2] was over 41.7 µM.

With `Cc1c(Br)c(C(=O)N/N=C/c2c(O)ccc3ccccc23)nn1C` the IC50 ([1]; Trypanosoma brucei, STIB 795) was at most 10.4 µM and the IC50 [2] was over 20.8 µM.

`COc1ccc(C2(CCNCc3ccc(Cl)cc3)CCOC(C)(C)C2)cc1` (stereo unspecified) gave an IC50 ([1]; Trypanosoma brucei, STIB 795) of 7.61 µM and an IC50 [2] of over 41.7 µM.

For `O=C1CC(n2nnn(-c3ccc(OC(F)(F)F)cc3)c2=S)C2COC1O2` (stereo unspecified), the IC50 ([1]; Trypanosoma brucei, STIB 795) was 4.99 µM and the IC50 [2] was over 41.7 µM.

For `CCCN1C(=O)C(O)(CC(=O)c2cccnc2)c2cc(Br)ccc21` (stereo unspecified), the IC50 ([1]; Trypanosoma brucei, STIB 795) was 0.617 µM and the IC50 [2] was over 41.7 µM.

In the case of `N#C/C(=C\c1cccn1-c1ccc(S(N)(=O)=O)cc1)c1nc2ccccc2[nH]1`, the IC50 ([1]; Trypanosoma brucei, STIB 795) is reported as 4.99 µM and the IC50 [2] is reported as over 41.7 µM.

Work on `CCCCCOc1ccc(NC(=O)C(=O)NC2CC(C)(C)NC(C)(C)C2)cc1` yielded an IC50 ([1]; Trypanosoma brucei, STIB 795) of 4.86 µM and an IC50 [2] of over 41.7 µM.

`Cc1ccc(Cn2cc(CCC(=O)NCCN3CCCC3)c3ccccc32)cc1` showed an IC50 ([1]; Trypanosoma brucei, STIB 795) of 3.3 µM and an IC50 [2] of over 20.8 µM.

Compound `COc1ccc(/C(N)=N/OC(=O)c2cc(OC)c(OC)cc2OC)cc1OC` has an IC50 ([1]; Trypanosoma brucei, STIB 795) of 0.798 µM and an IC50 [2] of over 41.7 µM.

In the case of `CN(C)S(=O)(=O)c1ccc(C(=O)Nc2nnc(-c3ccc(F)cc3)o2)cc1`, the IC50 ([1]; Trypanosoma brucei, STIB 795) is reported as 4.94 µM and the IC50 [2] is reported as over 41.7 µM.

Compound `COc1ccccc1C(NC(=O)C1CCCCC1)c1ccc2cccnc2c1O` (stereo unspecified) has an IC50 ([1]; Trypanosoma brucei, STIB 795) of 10.9 µM and an IC50 [2] of over 41.7 µM.

Work on `CC1(C)CC(=O)c2sc(NC(=O)c3sc4ccccc4c3Cl)nc2C1` yielded an IC50 ([1]; Trypanosoma brucei, STIB 795) of 0.442 µM and an IC50 [2] of over 41.7 µM.

`CCOC(=O)c1ccc(NC(=O)Cn2c(C(F)(F)F)nc3ccccc32)cc1` showed an IC50 [1] of 7.85 µM, an IC50 ([1]; Trypanosoma brucei, STIB 795) of 6.08 µM and an IC50 [2] of over 41.7 µM.

In the case of `COc1ccccc1C(=O)Nc1ccccc1Sc1cc(C)nc2ncnn12`, the IC50 ([1]; Trypanosoma brucei, STIB 795) is reported as 4.02 µM and the IC50 [2] is reported as over 41.7 µM.

With `COc1ccccc1C1N=C(c2ccc(Cl)cc2)CC(c2ccccc2O)N1` (stereo unspecified) the IC50 ([1]; Trypanosoma brucei, STIB 795) was 5.24 µM and the IC50 [2] was over 41.7 µM.

In the case of `CN1CCC(=NNC(=O)c2cc(-c3ccc(Cl)cc3)nc3ccccc23)CC1`, the IC50 ([1]; Trypanosoma brucei, STIB 795) is reported as 5.52 µM and the IC50 [2] is reported as over 41.7 µM.

For `O=c1ccccc2c(/C=C/c3cccc(Cl)c3Cl)nn(-c3ccccc3)c12`, the IC50 ([1]; Trypanosoma brucei, STIB 795) was 5.34 µM and the IC50 [2] was over 10.4 µM.

`CC(=O)NC1=C(N2CCN(C(=O)c3ccco3)CC2)C(=O)c2ccccc2C1=O` showed an IC50 [1] of 5.36 µM, an IC50 ([1]; Trypanosoma brucei, STIB 795) of 5.41 µM and an IC50 [2] of over 41.7 µM.

`Cc1nc2ncnn2c(Sc2ccccc2NC(=O)c2cccc(F)c2)c1C` gave an IC50 ([1]; Trypanosoma brucei, STIB 795) of 1.66 µM and an IC50 [2] of over 20.8 µM.

`O=C(NC(c1ccco1)c1cc(Cl)c2cccnc2c1O)c1cccnc1` (stereo unspecified) gave an IC50 ([1]; Trypanosoma brucei, STIB 795) of 0.053 µM and an IC50 [2] of over 20.8 µM.

Work on `CCCCn1c(=N)n(CC(O)c2ccc(Br)cc2)c2ccccc21` (stereo unspecified) yielded an IC50 [1] of 5.32 µM, an IC50 ([1]; Trypanosoma brucei, STIB 795) of 5.24 µM and an IC50 [2] of over 20.8 µM.

With `CC[n+]1c(/C=C/c2ccc(N(C)C)cc2)sc2ccc(C(=O)OC)cc21` the IC50 ([1]; Trypanosoma brucei, STIB 795) was 0.131 µM and the IC50 [2] was over 20.8 µM.

Work on `CN(C)CCn1c(=N)n(CC(O)c2ccc(Cl)c(Cl)c2)c2ccccc21` (stereo unspecified) yielded an IC50 ([1]; Trypanosoma brucei, STIB 795) of 1.07 µM and an IC50 [2] of over 4.17 µM.

With `CCC1(C)CC(CCNCc2ccccc2O)(c2ccc(F)cc2)CCO1` (stereo unspecified) the IC50 ([1]; Trypanosoma brucei, STIB 795) was 4.73 µM and the IC50 [2] was over 41.7 µM.

For `CN(C)CCCn1c(N)c(-c2nc3ccccc3[nH]2)c2nc(C#N)c(C#N)nc21`, the IC50 ([1]; Trypanosoma brucei, STIB 795) was 4.08 µM and the IC50 [2] was over 41.7 µM.

For `CCCCC(=O)NC(c1cccs1)c1cc(Cl)c2cccnc2c1O` (stereo unspecified), the IC50 ([1]; Trypanosoma brucei, STIB 795) was 0.666 µM and the IC50 [2] was over 41.7 µM.

With `O=C(NC(c1ccccc1F)c1ccc2cccnc2c1O)c1ccccc1` (stereo unspecified) the IC50 ([1]; Trypanosoma brucei, STIB 795) was 6.12 µM and the IC50 [2] was over 4.17 µM.

With `C[N+](C)(C)c1nc(N2CCOCC2)nc(N(c2ccccc2)c2ccccc2)n1` the IC50 ([1]; Trypanosoma brucei, STIB 795) was 2.51 µM and the IC50 [2] was over 41.7 µM.

In the case of `COc1ccccc1N1CCN(Cc2cc(Cl)c3cccnc3c2O)CC1`, the IC50 [1] is reported as over 10.4 µM, the IC50 ([1]; Trypanosoma brucei, STIB 795) is reported as 6.05 µM and the IC50 [2] is reported as over 4.17 µM.

`CCOc1ccc(N(C(C)=O)C2=C(N(C)C)C(=O)c3ccccc3C2=O)cc1` gave an IC50 ([1]; Trypanosoma brucei, STIB 795) of 5.11 µM and an IC50 [2] of over 4.17 µM.

Compound `CCCC(=O)NC(c1ccccc1Cl)c1cc(Cl)c2cccnc2c1O` (stereo unspecified) has an IC50 ([1]; Trypanosoma brucei, STIB 795) of 1.58 µM and an IC50 [2] of over 20.8 µM.

Work on `Oc1cccnc1NC(c1ccc(Cl)cc1)c1ccc2cccnc2c1O` (stereo unspecified) yielded an IC50 ([1]; Trypanosoma brucei, STIB 795) of 4.02 µM and an IC50 [2] of over 41.7 µM.

With `CCN1/C(=C/C=C/C2=[N+](C)c3ccc(C)cc3C2(C)C)C=Cc2ccccc21` the IC50 ([1]; Trypanosoma brucei, STIB 795) was 0.239 µM and the IC50 [2] was over 4.17 µM.
